According to patent publication US20050209295A1, “Methimazole derivatives and tautomeric cyclic thiones to inhibit cell adhesion” (priority 2004, published 2005):

What was measured:
Format in all cases: cell-based, human
VCAM-1 = assay: TNF-alpha-induced VCAM-1 RNA levels in aortic endothelial cells (Northern blot); conditions: for % INHIBITION of TNF-alpha-induced VCAM-1 RNA levels: aortic endothelial cells, mean ± SD
Experimental: (§1) Cell culture and treatment of HAEC: Human aortic endothelial cells (HAEC; Cambrex Bio Science Walkersville, Inc., Walkersville, Md.) are cultured in M199 supplemented with 8% FBS, 100 μg/ml heparin, 10 ng/ml endothelial growth factor, 100 μg/ml hypothalamus extract, 2 mM L-glutamine, 1% non-essential amino acids, 100 units/ml penicillin and 100 μg/ml streptomycin. HAEC are subcultured on gelatin pre-coated: 96-well tissue culture plates (Corning Incorporated; Corning, N.Y.) for viability assays and ELISA; 100-mm tissue culture dishes (BD Falcon; Franklin Lakes, N.J.) for Northern blot analyses, Western blot analyses and EMSA; 35-mm tissue culture dishes (Corning) for adhesion assays and on 24-well tissue culture plates for luciferase promoter assays (BD Falcon). All experiments are performed with confluent HAEC monolayers. Unless noted otherwise, HAEC are treated with 25 ng/ml TNF-α, in the absence or presence of C-10 or 0.25% DMSO (carrier control for C-10), for 2-24 hrs. The concentration of DMSO is held constant at 0.25% (unless indicated otherwise) for all of the C-10 conditions.
HAEC are washed with PBS and total RNA extracted using a commercial kit (RNeasy Mini Kit; Qiagen Inc.; Valencia, Calif.). 12 μg of total RNA per lane is resolved on 1% denaturing agarose gels containing 0.66M formaldehyde. Gels are capillary blotted on Nytran membranes (Schleicher and Schuell Inc.; Keene, N.H.), UV cross-linked, and used for hybridization. The probe for IRF-1 has been previously described (33). The G3PDH cDNA is from Clontech (Palo Alto, Calif.). […]; cDNAs are labeled with α-^32P-dCTP using the Ladderman Labeling Kit (Takara Biochemical Inc.; Berkeley, Calif.) (33). Northern blots are developed using a BAS 1500 Bioimaging Analyzer (Fuji Photo Film Co., Ltd. Medical Systems USA Inc.; Stanford, Calif.). Each experiment is replicated at least twice.

VCAM-1 promoter = assay: TNF-alpha-induced VCAM-1 promoter activity, dual luciferase reporter assay in HAEC
Experimental: as §1
Dual Luciferase Assay: Four human VCAM-1 promoter deletion constructs of different length, −1641/+12, −288/+12, −228/+12, −85/+12 bp are amplified by PCR from human genomic DNA. Each upstream primer contained a restriction endonuclease Mlu I site located at the 5′-end of the primer. The downstream primer corresponding to the +12 end contained a restriction endonuclease Xho I site at the 5′-end. The PCR products are digested by Mlu I and Xho I (New England Biolabs Inc., Beverly, Mass.) and ligated into a similarly digested pGL3 basic luciferase reporter vector (Promega, Madison, Wis.). Cells are transfected for 24 hrs. with 400 ng of indicated constructs, or pGL3 basic luciferase reporter vector as control, using GeneJuice transfection reagent (Novagen Inc., Madison, Wis.). All cells are also transfected with phRL-TK (Int−) vector (Promega), which contains wildtype Renilla luciferase (Rluc) as an “internal” transfection control. Luciferase assays are conducted with the Dual-Luciferase Reporter Assay System (Promega) on a Lumat LB 9507 tube luminometer. In every experiment, each condition is run in triplicate wells. Each experiment is replicated at least twice.

ICAM-1 = assay: TNF-α induced ICAM-1 mRNA in HAEC (Northern blot)
Experimental: as §1
HAEC are washed with PBS and total RNA extracted using a commercial kit (RNeasy Mini Kit; Qiagen Inc.; Valencia, Calif.). 12 μg of total RNA per lane is resolved on 1% denaturing agarose gels containing 0.66M formaldehyde. […]

IRF-1 = assay: EMSA of TNF-α induced IRF-1 binding activity to VCAM-1 promoter; conditions: 0.5 mM and 1 mM; 2 hr. TNF-α; HAEC nuclear extract
Experimental: Nuclear Extracts and EMSA: Nuclear extracts are prepared from harvested HAEC using NE-PER® extraction reagents (Pierce Chemical Co.; Rockford, Ill.) in the presence of a protease inhibitor cocktail (PMSF, Leupeptin, Pepstatin-A). Oligonucleotides (Biosynthesis Inc.; Lewisville, Tex.) are annealed and precipitated double stranded oligonucleotides end labeled with γ-^32P-ATP using T4 polynucleotide kinase enzyme. Binding reactions (20 min., room temperature) included ^32P-labeled probe (activity 100,000 cpm), 3-6 μg HAEC nuclear extract, 1 μg poly(dI-dC), 1 mM DTT, 10% glycerol and 1× binding buffer. Binding buffer (10×) for NF-κB EMSA is 200 mM HEPES-KOH (pH7.9), 340 mM KCl, 50 mM MgCl2, 5 mM EDTA (pH 8.0), 1% Triton X-100. Binding buffer (10×) for IRF-1 EMSA is 100 mM Tris-HCL (pH 7.5), 500 mM NaCl, 50 mM MgCl2, 10 mM EDTA (pH 8.0). In competition studies, nuclear extracts are incubated with 100 fold molar excess of unlabeled double stranded oligonucleotide. In supershift studies, nuclear extracts are incubated with 2 μg of appropriate antibodies. After the incubations, reaction mixtures are electrophoresed (160V, room temperature) on 5% non-denaturing polyacrylamide gels containing 5% glycerol in 1×TBE (50 mM Tris, 50 mM boric acid, and 1 mM EDTA). Gels are dried and autoradiographed. Each experiment is replicated at least twice. […]

With Cn1c(-c2ccccc2)cnc1S [5-Phenylmethimazole] the “% INHIBITION of TNF-alpha-induced VCAM-1 RNA levels” value (VCAM-1; 5.0 mM) was 99 ± 3%, the “% INHIBITION of TNF-alpha-induced VCAM-1 RNA levels” value (VCAM-1; 10 :M) was 75 ± 7% and the “% INHIBITION of TNF-alpha-induced VCAM-1 RNA levels” value (VCAM-1; 100 :M) was 99 ± 4%. The “effect on TNF-α induced VCAM-1 mRNA expression” value (VCAM-1; 2 hr. TNF-α, HAEC, Northern blot) was “reduced, in a dose-dependent manner”, the “effect on TNF-α induced VCAM-1 mRNA” value (VCAM-1; 24 hr. TNF-α, HAEC, Northern blot) was “reduced, in a dose dependent manner” and the “effect on TNF-α induced promoter activities of the four VCAM-1 constructs” value (VCAM-1 promoter; 0.3 mM, 10 ng/ml TNF-α 6 hrs., −1641/+12, −288/+12, −228/+12, −85/+12 bp constructs) was “inhibits”. For the same molecule, the “% INHIBITION of TNF-alpha-induced VCAM-1 promoter activity” value (VCAM-1 promoter; 10 :M, hVCAM-1(−228 to +12)-luciferase construct, mean ± SD) was 31 ± 5%, the “% INHIBITION of TNF-alpha-induced VCAM-1 promoter activity” value (VCAM-1 promoter; 100 :M, hVCAM-1(−228 to +12)-luciferase construct, mean ± SD) was 61 ± 3% and the inhibition at 5000 µM (VCAM-1 promoter; Homo sapiens, 5.0 mM, hVCAM-1(−228 to +12)-luciferase construct, mean ± SD) was 72 ± 3%. For the same molecule, the “effect on TNF-α induced ICAM-1 mRNA expression” value (ICAM-1; 2 hr. TNF-α) was “no effect”, the “effect on TNF-α induced ICAM-1 mRNA expression” value (ICAM-1; 24 hr. TNF-α) was “little to no effect” and the “effect on formation of TNF-α induced IRF-1 complex (EMSA)” value (IRF-1) was “inhibits”.
